Experimental data from patent US12649734B2, “Bioavailable protein disulfide isomerase inhibitors” (THE CLEVELAND CLINIC FOUNDATION, priority 2020, dated 2026).

Experiments:
MM1.S cells [1] = test: Cell viability assay (CellTiter-Glo), MM1.S; format: cell-based, human; details: Homo sapiens; MM1.S.luc; read-out: IC50 concentration
Procedure: Cell vi-ability and LD50 for inhibitors were measured in 96 well culture plates (2×10^4 cells/well) after 72 h of treatment using CellTiter-Glo® Luminescent Cell Viability Assay (Promega, Madison, WI, USA). (A) Cell survival assay with MM1.S.luc and BTZ-resistant MM1.S.luc cells. […] (C) Comparison of PDIA1 protein levels in MM1.S.luc and MM1.S.luc BTZ-resistant cells. Band intensity was calculated with Image Lab Version 5.2.1. (D) Cell survival assay with 5TGM1.luc and (E) BTZ-resistant 5TGM1.luc cells. (F) MM1.S cell line was exposed to CCF642-34, and BTZ for 72 h for synergistic drug combination test according to Chou and Talalay method. If the […] remained less than 1, the two drugs were determined as synergistic. […] The number of colony-forming units were plotted for each treatment.
(§1) Cell viability assay: Cell viability was measured in 96 well culture plates (2×10^4 cells/well) using CellTiter-Glo® Luminescent Cell Viability Assay (Promega, Madison, WI, USA) according to the manufacturer's protocol.

[2] = test system: BTZ-resistant MM1.S cells; test: Cell viability assay, BTZ-resistant MM1.S; format: cell-based, human; details: Homo sapiens, MM1.S; MM1S.luc BTZ; read-out: IC50 concentration
Procedure: Cells and reagents: MM1.S-luc-BTZ (BTZ®)-resistant cell line was made in our laboratory. Starting with 1 nM concentration, MM1.S-luc cells were treated with BTZ and exposed continuously for 5 days and removed for 2 days before re-exposure to the drug until the growth of the cells mimicked the parental cell line. Incremental increase of the drug was applied until the concentration of 8 nM was reached. […] BTZ was procured from Millennium Pharmaceuticals Inc. All cell lines that are used in this study and their detailed information are shown in table 1 below.
as §1

[3] = test system: RPMI-8226 cells vs CD34+ HSPCs derived from healthy bone marrow; test: In vitro colony-forming assay, myeloma cells versus normal bone marrow CD34+ cells; format: cell-based, human; details: colonies scored on day 14
Procedure: In vitro colony-forming assays: Mononuclear cells derived from bone marrow or purified CD34+ cells from a healthy donor, cord blood, or MM cell RPMI-8226 were grown in semi-solid methylcellulose media (MethoCult™, H4435; STEMCELL Technologies) in the presence of indicated compounds and concentrations. A total of 10,000/mL normal bone marrow CD34+ cells and 1000/mL RPMI-8226 cells were plat-ed, and colonies were scored on day 14.

MM1.S cells [4] = test: RNA-seq gene expression profiling; format: cell-based, human; details: 3 μM, 6 h
Procedure: FIGS. 7A-7H provide graphs showing CCF642-34 is selective for PDIA1 inhibition-induced ER stress response pathway. MM1.S cells were treated with 3 μM of either CCF642 or CCF642-34 for 6 h, and gene expression analysis was performed by RNA sequencing. (A,B) Volcano plots showing CCF642-34 and CCF642 compared to DMSO control. The criteria for differential expression were at least a 2-fold change with p value less than 0.05. The analysis was performed in Originlab, Version 2019b (OriginLab Corporation, Northampton, MA, USA). […] The diagram was generated using a web-based bioinformatics server. (D,E) Hierarchical clusterings with heat map of MM1.S cells treated with vehicle CCF642-34 or CCF642 are shown for response to endoplasmic reticulum stress and unfolded protein response gene sets. (F-H) Heat maps of PERK and ATF6 target genes, Nrf2, and ER-associated degradation (ERAD) pathways are compared between control and inhibitor-treated MM1.S cells. Data analysis was performed using a web-based server and the Broad Institute Morpheus software.
RNA-seq and analysis: MM1.S cells were treated with 3 μM of either CCF642 or CCF642-34 for 6 h, and RNA was purified by using the NucleoSpin RNA kit (Takara Bio USA, Inc.; cat. #740955) according to the manufacturer's instruction. The RNA sequencings were completed as reported previously. Guan et al., Commun. Biol., 3, 1-13 (2020) The RNA-seq data were sub-mitted to the Gene Expression Omnibus (GEO) repository at the National Center for Biotechnology Information (NCBI) archives, with assigned GEO accession number GSE167097.

[5] = Solubility in aqueous buffer (turbidity assay); format: physicochemical
Text: To improve its solubility, potency, and selectivity, the inventors used the CCF642 binding space in the catalytic site for in silico modeling and mapped the binding site to the helix-turn-helix motif composed of the WCGHCK binding site in the aa′ and bb′ domains of the PDIA1 active site (FIG. 4A,B). […] The inventors chose to accomplish this by attaching a 3-carbon flexible linker with a terminal primary amino group to the corresponding phenol followed by coupling to desired L-amino acids (FIGS. 1, 2, 4A). The N-BOC penultimate intermediates were purified using flash silica gel chromatography and then deprotected using 4N HCl in dioxane to generate the corresponding hydrochloride (HCL) salts. The compounds for testing were fully characterized by ^1H, ^13C NMR and high-resolution mass spectroscopy.

PDI = PDI (Homo sapiens, UniProt P07237); details: reported previously; cited from earlier work
PDIA1 = PDIA1 (Homo sapiens, UniProt P07237); details: cited from earlier work
MM1.S cells [6] = test: ER stress response and apoptosis markers by immunoblotting; format: cell-based, human; details: 3 μM, 4 h
Procedure: FIGS. 6A-6C provide graphs and images showing PDIA1 inhibition by CCF642 analogues induce acute endoplasmic reticulum (ER) stress response and lead to apoptosis. Multiple myeloma cells (MM1.S) were treated with 3 μM of CCF642, -34, -37, -39, -34-A, and Tunicamycin (as a control). The status of ER sensors (XBP-1S, IRE1α oligomerization, and induction of C/EBP homology protein (CHOP)) along with apoptosis markers (cleaved caspase 3 and PARP1) were monitored. (A) MM1.S cells were treated for 4 h with CCF642 and its indicated analogues. (B) MM1.S cells were treated with CCF642-34 in a time course. (C) MM1.S, MM1.S.luc, and BTZ-resistant MM1.S.luc cells were stained with the H2DCFDA ROS detection and then treated with 2.5 μM CCF642-34 up to 4 h.
Immunoblotting: Immunoblotting was performed as described previously (Dallas et al., Blood, 93, 1697-1706 (1999)) using primary antibodies against PDIA1 (Cat #3501), XBP1-S (Cat #12782); IRE1α (Cat #3294), C/EBP homologous protein (CHOP) (Cat #5554), Caspase-3 (Cat #9665), PARP1 (Cat #9542), and GAPDH (Cat #3683) purchased from Cell Signaling Technology, Inc. (Danvers, MA, USA) and used at 1:1000 dilution, unless mentioned otherwise.

Chain of PDI (P07237 18-508): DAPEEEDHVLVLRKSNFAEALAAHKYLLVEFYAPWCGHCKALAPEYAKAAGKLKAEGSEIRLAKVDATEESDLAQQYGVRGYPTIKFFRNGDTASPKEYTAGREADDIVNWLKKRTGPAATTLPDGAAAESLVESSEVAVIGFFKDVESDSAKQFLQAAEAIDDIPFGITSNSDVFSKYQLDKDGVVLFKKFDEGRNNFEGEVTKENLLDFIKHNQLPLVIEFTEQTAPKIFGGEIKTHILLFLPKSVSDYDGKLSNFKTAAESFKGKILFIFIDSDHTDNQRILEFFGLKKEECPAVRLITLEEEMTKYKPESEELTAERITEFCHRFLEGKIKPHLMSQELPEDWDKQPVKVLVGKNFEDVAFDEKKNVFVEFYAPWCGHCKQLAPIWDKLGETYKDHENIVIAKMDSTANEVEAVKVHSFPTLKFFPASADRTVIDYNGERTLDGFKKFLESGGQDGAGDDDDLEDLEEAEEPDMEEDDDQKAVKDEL
Chain of PDIA1 (P07237 18-508): as above

CC(C)C[C@H](NC(=O)[C@H](Cc1ccccc1)NC(=O)c1cnccn1)B(O)O [Bortezomib, reference compound]
IC50 (MM1.S cells [1]): 2 nM | IC50 [2]: 8 nM

COc1ccc(N2C(=O)/C(=C\c3ccc([N+](=O)[O-])s3)SC2=S)cc1 [CCF642, reference compound]
potency in restricting colony formation of RPMI-8226 compared to CD34+ HSPCs [3]: ~20 fold | number of downregulated genes (MM1.S cells [4]): 257 genes | number of upregulated genes (MM1.S cells [4]): 311 genes | number of genes with changed expression compared to vehicle control (MM1.S cells [4]; 2-fold change, p less than 0.05): 568 genes | solubility [5]: insolubility | IC50 (PDI): sub-micromolar | binding selectivity of CCF642, as reported previously (PDIA1): off-target bindings in addition to its binding to PDIA1

O=C(CCC1CNc2ccccc21)NCCCOc1ccc(N2C(=O)/C(=C/c3ccc([N+](=O)[O-])s3)SC2=S)cc1 (stereo not shown) [CCF642-34A]
ER stress response (induction of XBP-1S and CHOP) (MM1.S cells [6]): failed to induce acute ER stress response
